Experimental data: patent publication US12637454B2, “Heterocyclic monoacylglycerol lipase (MAGL) inhibitors” (Hoffmann-La Roche Inc., priority 2019, dated 2026)

target: T1, MAGL (Homo sapiens, UniProt Q99685); assay: 2-AG assay (MAGL inhibitory activity, hydrolysis of 2-arachidonoylglycerol followed by mass spectrometry); format: biochemical; conditions: 50 pM MAGL, 8 μM 2-arachidonoylglycerol, 15 min preincubation, 30 min incubation at RT
T1 sequence (Q99685 1-303): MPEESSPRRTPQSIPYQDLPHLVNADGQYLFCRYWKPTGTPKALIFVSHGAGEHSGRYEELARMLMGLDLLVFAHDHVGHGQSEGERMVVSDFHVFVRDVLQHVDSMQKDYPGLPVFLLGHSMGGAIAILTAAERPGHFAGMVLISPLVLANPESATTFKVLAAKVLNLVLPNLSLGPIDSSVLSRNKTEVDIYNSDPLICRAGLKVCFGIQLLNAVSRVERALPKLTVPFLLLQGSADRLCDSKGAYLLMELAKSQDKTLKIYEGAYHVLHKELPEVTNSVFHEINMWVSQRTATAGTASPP
Description: Compounds were profiled for MAGL inhibitory activity by determining the enzymatic activity by following the hydrolysis of the natural substrate 2-arachidonoylglycerol (2-AG) resulting in arachidonic acid, which can be followed by mass spectrometry. This assay is hereinafter abbreviated “2-AG assay”.
The 2-AG assay was carried out in 384 well assay plates (PP, Greiner Cat #784201) in a total volume of 20 μL. Compound dilutions were made in 100% DMSO (VWR Chemicals 23500.297) in a polypropylene plate in 3-fold dilution steps to give a final concentration range in the assay from 12.5 μM to 0.8 pM. 0.25 μL compound dilutions (100% DMSO) were added to 9 μL MAGL in assay buffer (50 mM TRIS (GIBCO, 15567-027), 1 mM EDTA (Fluka, 03690-100 mL), 0.01% (v/v) Tween. After shaking, the plate was incubated for 15 min at RT. To start the reaction, 10 μL 2-arachidonoylglycerol in assay buffer was added. The final concentrations in the assay was 50 pM MAGL and 8 μM 2-arachidonoylglyerol. After shaking and 30 min incubation at RT, the reaction was quenched by the addition of […] of ACN containing 4 μM of d8-arachidonic acid. The amount of arachidonic acid was traced by an online SPE system (Agilent Rapidfire) coupled to a triple quadrupole mass spectrometer (Agilent 6460). A C18 SPE cartridge (G9205A) was used in an ACN/water liquid setup. The mass spectrometer was operated in negative electrospray mode following the mass transitions 303.1→259.1 for arachidonic acid and 311.1→267.0 for d8-arachidonic acid. The activity of the compounds was calculated based on the ratio of intensities [arachidonic acid/d8-arachidonic acid].

**Q.** With `Cc1c[nH]nc1-c1cccc(C(=O)N2CCN3C[C@@](O)(c4ccc(Cl)cc4)CC[C@@H]3C2)c1` [Example 17] as the compound, how does the IC50 read?
**A.** 255 nM

**Q.** How did the IC50 turn out when `O=C(c1cccc(/C=C/c2ccccc2)c1Br)N1CCN2C[C@@H](c3ccc(Cl)cc3)CC[C@@H]2C1` [Example 28, [(7R,9aR)-7-(4-chlorophenyl)-1,3,4,6,7,8,9,9a-octahydropyrido[1,2-a]pyrazin-2-yl]-[2-bromo-3-[(E)-2-phenylethenyl]phenyl]methanone] was run?
**A.** 169 nM

**Q.** `O=C(c1cccc(OC(F)F)c1Cl)N1CCN2C[C@@](O)(c3ccc(C(F)(F)F)cn3)CC[C@@H]2C1` (stereo in doubt) [Example 37, [(7R,9aR)-7-hydroxy-7-[5-(trifluoromethyl)pyridin-2-yl]-3,4,6,8,9,9a-hexahydro-1H-pyrido[1,2-a]pyrazin-2-yl]-[2-chloro-3-(difluoromethoxy)phenyl]methanone] was tested. Which IC50 did it give?
**A.** 898 nM

**Q.** `O=C(c1cccc(-c2c[nH]nc2F)c1Cl)N1CCN2C[C@](O)(c3ccc(Cl)cc3)CC[C@H]2C1` [Example 6, [(7R,9aS)-7-(4-chloropheny1)-7-hydroxy-3,4,6,8,9,9a-hexahydro-1H-pyrido[1,2-a]pyrazin-2-yl]-[2-chloro-3-(3-fluoro-1H-pyrazol-4-yl)phenyl]methanone] was tested. Which IC50 did it give?
**A.** 17.2 nM

**Q.** Which IC50 does the source give for `O=C(c1cccc(-c2ccn[nH]2)c1F)N1CCN2C[C@@](O)(c3ccc(F)c(F)c3)CC[C@@H]2C1` [Example 61, [(7S,9aR)-7-(3,4-difluorophenyl)-7-hydroxy-3,4,6,8,9,9a-hexahydro-1H-pyrido[1,2-a]pyrazin-2-yl]-[2-fluoro-3-(1H-pyrazol-5-yl)phenyl]methanone] here?
**A.** 14 nM

**Q.** Which IC50 does the source give for `O=C(c1cccc(-c2cc[nH]n2)c1Cl)N1CCN2C[C@@](O)(c3ccc(F)c(Cl)c3)CC[C@@H]2C1` [Example 54, [(7S,9aR)-7-(3-chloro-4-fluorophenyl)-7-hydroxy-3,4,6,8,9,9a-hexahydro-1H-pyrido[1,2-a]pyrazin-2-yl]-[2-chloro-3-(1H-pyrazol-3-yl)phenyl]methanone] here?
**A.** 3.08 nM

**Q.** With `Cn1c(Cl)c(C(=O)N2CCN3C[C@](O)(c4ccc(Cl)cc4)CC[C@H]3C2)ccc1=O` [Example 11, 5-[(7R,9aS)-7-(4-chlorophenyl)-7-hydroxy-3,4,6,8,9,9a-hexahydro-1H-pyrido[1,2-a]pyrazine-2-carbonyl]-6-chloro-l-methylpyridin-2-one] as the compound, how does the IC50 read?
**A.** 775 nM

**Q.** For `O=C(c1cccc(-c2ccn[nH]2)c1Cl)N1CCN2C[C@@](O)(c3ccc(C(F)(F)F)cn3)CC[C@@H]2C1` [Example 20, [(7R,9aR)-7-hydroxy-7-[5-(trifluoromethyl)pyridin-2-yl]-3,4,6,8,9,9a-hexahydro-1H-pyrido[1,2-a]pyrazin-2-yl]-[2-chloro-3-(1H-pyrazol-5-yl)phenyl]methanone], which IC50 is on record?
**A.** 11.5 nM

**Q.** With `O=C(c1cccc(N2CCC[C@@H](O)C2)c1Cl)N1CCN2C[C@@](O)(c3ccc(F)c(Cl)c3)CC[C@@H]2C1` [Example 48, [(7S,9aR)-7-(3-chloro-4-fluorophenyl)-7-hydroxy-3,4,6,8,9,9a-hexahydro-1H-pyrido[1,2-a]pyrazin-2-yl]-[2-chloro-3-[(3R)-3-hydroxypiperidin-1-yl]phenyl]methanone] as the compound, how does the IC50 read?
**A.** 292 nM

**Q.** With `O=C(c1cccc(OC(F)F)c1Cl)N1CCN2C[C@](O)(c3ccc(C(F)(F)F)cn3)CC[C@H]2C1` (stereo in doubt) [Example 38, [(7S,9aS)-7-hydroxy-7-[5-(trifluoromethyl)pyridin-2-yl]-3,4,6,8,9,9a-hexahydro-1H-pyrido[1,2-a]pyrazin-2-yl]-[2-chloro-3-(difluoromethoxy)phenyl]methanone] as the compound, how does the IC50 read?
**A.** 327 nM

**Q.** `O=C(c1cccc(F)c1Cl)N1CCN2C[C@](O)(c3ccc(C(F)(F)F)cn3)CC[C@H]2C1` [Example 42, [(7S,9aS)-7-hydroxy-7-[5-(trifluoromethyl)pyridin-2-yl]-3,4,6,8,9,9a-hexahydro-1H-pyrido[1,2-a]pyrazin-2-yl]-(2-chloro-3-fluorophenyl)methanone] was tested. Which IC50 did it give?
**A.** 4820 nM

**Q.** Which IC50 does the source give for `O=C(c1cccc(N2CCC[C@H](O)C2)c1Cl)N1CCN2C[C@@](O)(c3ccc(F)c(Cl)c3)CC[C@@H]2C1` [Example 47, [(7S,9aR)-7-(3-chloro-4-fluorophenyl)-7-hydroxy-3,4,6,8,9,9a-hexahydro-1H-pyrido[1,2-a]pyrazin-2-yl]-[2-chloro-3-[(3S)-3-hydroxypiperidin-1-yl]phenyl]methanone] here?
**A.** 41.5 nM

**Q.** For `O=C(c1cccc(F)c1Cl)N1CCN2C[C@@](O)(c3ccc(C(F)(F)F)cn3)CC[C@@H]2C1` [Example 41, [(7R,9aR)-7-hydroxy-7-[5-(trifluoromethyl)pyridin-2-yl]-3,4,6,8,9,9a-hexahydro-1H-pyrido[1,2-a]pyrazin-2-yl]-(2-chloro-3-fluorophenyl)methanone], which IC50 is on record?
**A.** 392 nM

**Q.** With `O=C(c1cccc(-c2[nH]ncc2F)c1Cl)N1CCN2C[C@@](O)(c3ccc(F)c(Cl)c3)CC[C@@H]2C1` [Example 57, [(7S,9aR)-7-(3-chloro-4-fluorophenyl)-7-hydroxy-3,4,6,8,9,9a-hexahydro-1H-pyrido[1,2-a]pyrazin-2-yl]-[2-chloro-3-(4-fluoro-1H-pyrazol-5-yl)phenyl]methanone] as the compound, how does the IC50 read?
**A.** 0.74 nM

**Q.** How did the IC50 turn out when `O=C(c1cccc(N2CCC23COC3)c1Cl)N1CCN2C[C@@](O)(c3ccc(Cl)cc3)CC[C@@H]2C1` [Example 36, [(7S,9aR)-7-(4-chlorophenyl)-7-hydroxy-3,4,6,8,9,9a-hexahydro-1H-pyrido[1,2-a]pyrazin-2-yl]-[2-chloro-3-(6-oxa-1-azaspiro[3.3]heptan-1-yl)phenyl]methanone] was run?
**A.** 76 nM

**Q.** Which IC50 does the source give for `Cc1cn[nH]c1-c1cccc(C(=O)N2CCN3C[C@@](O)(c4ccc(Cl)cc4)CC[C@@H]3C2)c1Cl` [Example 16, [(7S,9aR)-7-(4-chlorophenyl)-7-hydroxy-3,4,6,8,9,9a-hexahydro-1H-pyrido[1,2-a]pyrazin-2-yl]-[2-chloro-3-(4-methyl-1H-pyrazol-5-yl)phenyl]methanone] here?
**A.** 10.3 nM

**Q.** `COc1cccc(C(=O)N2CCN3C[C@@](O)(C(F)(F)F)CC[C@@H]3C2)c1Cl` (racemic) [Example 26, (2-Chloro-3-methoxyphenyl)-[rac-(7R,9aR)-7-hydroxy-7-(trifluoromethyl)-3,4,6,8,9,9a-hexahydro-1H-pyrido[1,2-a]pyrazin-2-yl]methanone] was tested. Which IC50 did it give?
**A.** 678 nM

**Q.** For `COc1cccc(C(=O)N2CCN3C[C@](O)(c4ccc(C(F)(F)F)cn4)CC[C@H]3C2)c1Cl` [Example 19, [(7S,9aS)-7-hydroxy-7-[5-(trifluoromethyl)pyridin-2-yl]-3,4,6,8,9,9a-hexahydro-1H-pyrido[1,2-a]pyrazin-2-yl]-(2-chloro-3-methoxyphenyl)methanone], which IC50 is on record?
**A.** 150 nM

**Q.** `O=C(c1cccc(O)c1Cl)N1CCN2C[C@@](O)(c3ccc(Cl)cc3)CC[C@@H]2C1` [Example 33, [(7S,9aR)-7-(4-chlorophenyl)-7-hydroxy-3,4,6,8,9,9a-hexahydro-1H-pyrido[1,2-a]pyrazin-2-yl]-(2-chloro-3-hydroxyphenyl)methanone] was tested. Which IC50 did it give?
**A.** 159 nM

**Q.** For `O=C(c1cccc(-c2[nH]ncc2F)c1F)N1CCN2C[C@@](O)(c3ccc(F)c(F)c3)CC[C@@H]2C1` [Example 62, [(7S,9aR)-7-(3,4-difluorophenyl)-7-hydroxy-3,4,6,8,9,9a-hexahydro-1H-pyrido[1,2-a]pyrazin-2-yl]-[2-fluoro-3-(4-fluoro-1H-pyrazol-5-yl)phenyl]methanone], which IC50 is on record?
**A.** 20.5 nM

**Q.** For `O=C(c1cccc(N2CCOCC2)c1F)N1CCN2C[C@@](O)(c3ccc(Cl)cc3)CC[C@@H]2C1` [Example 21, [(7S,9aR)-7-(4-chlorophenyl)-7-hydroxy-3,4,6,8,9,9a-hexahydro-1H-pyrido[1,2-a]pyrazin-2-yl]-(2-fluoro-3-morpholino-phenyl)methanone], which IC50 is on record?
**A.** 351 nM

**Q.** With `COc1cccc(C(=O)N2CCN3C[C@](O)(c4ccc(F)c(F)c4)CC[C@H]3C2)c1Cl` [Example 60, [(7R,9aS)-7-(3,4-difluorophenyl)-7-hydroxy-3,4,6,8,9,9a-hexahydro-1H-pyrido[1,2-a]pyrazin-2-yl]-(2-chloro-3-methoxyphenyl)methanone] as the compound, how does the IC50 read?
**A.** 118 nM

**Q.** With `O=C(c1cccc(-c2ccn[nH]2)c1Cl)N1CCN2C[C@@](O)(c3ccc(Cl)cc3)CC[C@@H]2C1` [Example 3, [(7S,9aR)-7-(4-chlorophenyl)-7-hydroxy-3,4,6,8,9,9a-hexahydro-1H-pyrido[1,2-a]pyrazin-2-yl]-[2-chloro-3-(1H-pyrazol-5-yl)phenyl]methanone] as the compound, how does the IC50 read?
**A.** 4.31 nM
